The supplement of paper PMC4862054

Key:
Conditions in all cases: incubation time: 72 h
BT-474 [1] = assay: normalised response (% of control), CellTox Green; higher = less cell death (100 = DMSO, 0 = benzethonium chloride kill control)
Procedure, shortened: (§1)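 Breast cancer cell lines were exposed for 72 h in 384-well plates to compound at 5 concentrations, 10-fold apart, covering a 10,000-fold range fixed for each compound. Plates were read for CellTox Green fluorescence and CellTiter-Glo luminescence and normalised to 0.1 % DMSO (100) and a positive kill control (0). Each value is the normalised signal at one concentration of the series.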

BT-549 [2] = assay: as above
Procedure, shortened: as §1

CAL-120 [3] = assay: as above
Procedure, shortened: as §1

CAL-148 [4] = assay: as above
Procedure, shortened: as §1

CAL-51 [5] = assay: as above
Procedure, shortened: as §1

CAL-85-1 [6] = assay: as above
Procedure, shortened: as §1

DU-4475 [7] = assay: as above
Procedure, shortened: as §1

HCC1599 [8] = assay: as above
Procedure, shortened: as §1

HCC1937 [9] = assay: as above
Procedure, shortened: as §1

HDQ-P1 [10] = assay: as above
Procedure, shortened: as §1

Hs578T [11] = assay: as above
Procedure, shortened: as §1

MCF-10A [12] = assay: as above
Procedure, shortened: as §1

MDA-MB-231 [13] = assay: as above
Procedure, shortened: as §1

MDA-MB-436 [14] = assay: as above
Procedure, shortened: as §1

MDA-MB-453 [15] = assay: as above
Procedure, shortened: as §1

MDA-MB-468 [16] = assay: as above
Procedure, shortened: as §1

MFM-223 [17] = assay: as above
Procedure, shortened: as §1

BT-474 [18] = assay: normalised response (% of control), CellTiter-Glo; higher = more viable cells (100 = DMSO, 0 = benzethonium chloride kill control)
Method: (§2)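 DSRT, 72 h incubation, CellTox Green / CellTiter-Glo readout. Signal is normalised to DMSO and benzethonium chloride controls. Value is the normalised response at dose 3.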

BT-549 [19] = assay: as above
Method: as §2

CAL-120 [20] = assay: as above
Method: as §2

CAL-148 [21] = assay: as above
Method: as §2

CAL-51 [22] = assay: as above
Method: as §2

CAL-85-1 [23] = assay: as above
Method: as §2

DU-4475 [24] = assay: as above
Method: as §2

HCC1143 [25] = assay: as above
Method: as §2

HCC1599 [26] = assay: as above
Method: as §2

HCC1937 [27] = assay: as above
Method: as §2

HDQ-P1 [28] = assay: as above
Method: as §2

Hs578T [29] = assay: as above
Method: as §2

MCF-10A [30] = assay: as above
Method: as §2

MDA-MB-231 [31] = assay: as above
Method: as §2

MDA-MB-436 [32] = assay: as above
Method: as §2

MDA-MB-453 [33] = assay: as above
Method: as §2

MDA-MB-468 [34] = assay: as above
Method: as §2

MFM-223 [35] = assay: as above
Method: as §2

SK-BR-3 = assay: as above
Method: as §2

HCC1143 [36] = assay: normalised response (% of control), CellTox Green; higher = less cell death (100 = DMSO, 0 = benzethonium chloride kill control)
Procedure, shortened: as §1

| SMILES | normalised response (BT-474 [1]) [%] | normalised response (BT-549 [2]) [%] | normalised response (CAL-120 [3]) [%] | normalised response (CAL-148 [4]) [%] | normalised response (CAL-51 [5]) [%] | normalised response (CAL-85-1 [6]) [%] | normalised response (DU-4475 [7]) [%] | normalised response (HCC1599 [8]) [%] | normalised response (HCC1937 [9]) [%] | normalised response (HDQ-P1 [10]) [%] | normalised response (Hs578T [11]) [%] | normalised response (MCF-10A [12]) [%] | normalised response (MDA-MB-231 [13]) [%] | normalised response (MDA-MB-436 [14]) [%] | normalised response (MDA-MB-453 [15]) [%] | normalised response (MDA-MB-468 [16]) [%] | normalised response (MFM-223 [17]) [%] | normalised response (BT-474 [18]) [%] | normalised response (BT-549 [19]) [%] | normalised response (CAL-120 [20]) [%] | normalised response (CAL-148 [21]) [%] | normalised response (CAL-51 [22]) [%] | normalised response (CAL-85-1 [23]) [%] | normalised response (DU-4475 [24]) [%] | normalised response (HCC1143 [25]) [%] | normalised response (HCC1599 [26]) [%] | normalised response (HCC1937 [27]) [%] | normalised response (HDQ-P1 [28]) [%] | normalised response (Hs578T [29]) [%] | normalised response (MCF-10A [30]) [%] | normalised response (MDA-MB-231 [31]) [%] | normalised response (MDA-MB-436 [32]) [%] | normalised response (MDA-MB-453 [33]) [%] | normalised response (MDA-MB-468 [34]) [%] | normalised response (MFM-223 [35]) [%] | normalised response (SK-BR-3) [%] | normalised response (HCC1143 [36]) [%] |
| --- | --- | --- | --- | --- | --- | --- | --- | --- | --- | --- | --- | --- | --- | --- | --- | --- | --- | --- | --- | --- | --- | --- | --- | --- | --- | --- | --- | --- | --- | --- | --- | --- | --- | --- | --- | --- | --- |
| CN(C)C/C=C/C(=O)Nc1cc2c(Nc3ccc(F)c(Cl)c3)ncnc2cc1O[C@H]1CCOC1 [Afatinib] (10 nM) | 95.2 | 67.8 | 95.5 | 97.5 | 109 | 94.8 | 97.6 | 109 | 113 | 101 | 97.6 | 12.3 | 96.5 | 96.1 | 82.9 | 70.8 | 69 | 98.9 | 112 | 94 | 97.9 | 87.7 | 97 | 106 | 106 | 118 | 97.6 | 81.2 | 101 | 59.3 | 99.3 | 96 | 88.6 | 98.1 | 104 | 64.6 |  |
| CN1CC[C@H](c2c(O)cc(O)c3c(=O)cc(-c4ccccc4Cl)oc23)[C@H](O)C1 [Alvocidib] (100 nM) | 98.4 | 101 | 97.2 | 103 | 102 | 91.1 | 96.8 | 108 | 113 | 92.7 |  | 91.8 | 69 | 69.6 | 106 | 111 | 106 | 85.8 | 95.5 | 86.2 | 100 | 81.3 | 104 | 94.1 | 102 | 108 | 99.2 | 86.5 | 103 | 100 | 90.8 | 75.9 | 122 | 91.9 | 96.9 | 87.8 | 114 |
| Nc1nc(Cl)nc2c1ncn2[C@H]1C[C@H](O)[C@@H](CO)O1 [Cladribine] (10 nM) | 100 | 97.8 | 102 | 80.9 | 106 | 107 | 102 | 95 | 88.3 | 62.4 |  | 102 | 109 |  | 58.9 |  | 104 | 99.6 | 105 | 102 | 99.5 | 84.4 | 101 | 102 | 101 | 106 | 92.6 | 95.8 | 101 | 99.5 | 100 | 102 | 105 | 102 | 104 | 108 | 53.3 |
| COc1cccc2c1C(=O)c1c(O)c3c(c(O)c1C2=O)C[C@@](O)(C(=O)CO)C[C@@H]3O[C@H]1C[C@H](N)[C@H](O)[C@H](C)O1 [Doxorubicin] (10 nM) | 98 | 82.1 | 96.7 | 107 | 107 | 100 | 101 | 118 | 91.2 | 110 | 111 | 90 |  | 94.8 | 105 | 91.5 | 107 | 103 | 103 | 98.1 | 111 | 91.8 | 103 | 104 | 109 | 98.8 | 101 | 102 | 106 | 98.4 | 104 | 92.5 | 106 | 106 | 108 | 107 | 112 |
| CC(=O)O[C@]1(C(C)=O)CC[C@H]2[C@@H]3C=C(C)C4=CC(=O)CC[C@]4(C)[C@H]3CC[C@@]21C [Megestrol acetate] (100 nM) | 101 | 95.4 | 103 | 66.4 | 105 | 103 | 99.9 | 83.5 | 68.3 | 81.5 |  | 64.5 | 116 | 107 | 104 | 149 | 99.2 | 109 | 109 | 96.5 | 97.4 | 109 | 104 | 99.4 | 95.7 | 102 | 104 | 95.6 | 106 | 104 | 111 | 101 | 86.9 | 90.4 | 99.1 | 94.3 | 74 |
| COc1cccc2cc(-c3nc([C@H]4CC[C@H](C(=O)O)CC4)n4ncnc(N)c34)[nH]c12 [OSI-027] (100 nM) | 99.4 | 93.2 | 97.6 | 102 | 105 | 95.9 | 98.5 | 102 | 90.9 | 114 | 108 | 98.3 | 76.7 |  | 101 | 77.1 | 105 | 94.8 | 98.3 | 92.9 | 100 | 103 | 96.6 | 100 | 101 | 114 | 98.2 | 97 | 95.3 | 86.7 | 95.3 | 92 | 74.2 | 92.1 | 91.3 | 77.3 |  |
| OC[C@H]1O[C@@H](n2cnc3c2N=CNC[C@H]3O)C[C@@H]1O [Pentostatin] (100 nM) | 101 | 99.5 | 103 | 55.8 | 102 | 106 | 101 | 100 | 96.4 | 77.7 |  | 94.7 | 123 | 90.5 | 103 | 104 | 99.5 | 93.3 | 96.1 | 103 | 97.8 | 86.6 | 100 | 106 | 104 | 107 | 99.4 | 99 | 104 | 102 | 106 | 96.6 | 101 | 96.9 | 100 | 100 | 88.7 |
| N#CC[C@H](C1CCCC1)n1cc(-c2ncnc3[nH]ccc23)cn1 [Ruxolitinib] (100 nM) | 97.1 | 108 | 103 | 78.4 | 99.5 | 97.7 | 96.2 | 95 | 91.7 | 94.4 | 60.9 | 86.5 |  | 83.7 | 99 | 52.5 | 98.4 | 96.6 | 103 | 96.3 | 87.1 | 113 | 95.1 | 95.8 | 98.2 | 94 | 102 | 100 | 94.4 | 84.2 | 97.9 | 93.8 | 85.7 | 96.6 | 90.5 | 88.4 | 96.9 |
